Experimental data as given in ChEMBL document CHEMBL1144413 (J Med Chem, 2005).

Assays:
[1] = molecular target: T1, Aldo-keto reductase family 1 member A1 (Homo sapiens, UniProt P14550); assay: In vitro inhibition of recombinant human aldehyde reductase
T1 sequence (P14550 whole entry): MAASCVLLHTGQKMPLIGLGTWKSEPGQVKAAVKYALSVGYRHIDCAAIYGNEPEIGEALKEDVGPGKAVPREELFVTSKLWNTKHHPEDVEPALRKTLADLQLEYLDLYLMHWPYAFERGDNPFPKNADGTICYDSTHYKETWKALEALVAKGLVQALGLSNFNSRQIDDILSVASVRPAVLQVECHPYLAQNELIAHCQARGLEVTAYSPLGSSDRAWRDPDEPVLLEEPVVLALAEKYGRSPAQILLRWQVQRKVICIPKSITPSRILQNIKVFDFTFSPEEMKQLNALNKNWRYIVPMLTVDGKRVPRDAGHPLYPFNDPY

[2] = molecular target: Aldo-keto reductase family 1 member B1 (Homo sapiens, UniProt P15121); assay: In vitro inhibition of recombinant human aldose reductase expressed in Escherichia coli
[3] = species: Rattus norvegicus; settings: Plasma
Description: Ability to lower elevated plasma triglyceride levels in diabetic rats (streptozotocin treated) model at 0.48 mg/kg/day

[4] = Area under the concentration time curve 0-24 h was determined in nonfasted rats after p.o. doses of 6 mg/kg/day; format: ADME, organism-based; parameters: dose 6 mg/kg/day, time < 24 hr, route oral; settings: rat, in vivo, po
[5] = species: Rattus norvegicus
Description: Sorbitol accumulation in 3 month diabetic rats (streptozotocin treated) done for 30 minutes at 22 degree C in dark by using sorbitol dehydrogenase at 5 mg/kg/day; BQL is Below quantifiable level

[6] = Area under the concentration time curve 0-24 hr was determined in fasted rats after i.v. doses of 10 mg/kg/day; format: ADME, organism-based; parameters: time < 24 hr, dose 10 mg/kg/day, route intravenous; settings: rat, in vivo, iv
[7] = Total body clearance was determined in fasted rats after p.o. doses of 6 mg/kg/day; format: ADME, organism-based; parameters: route oral; settings: rat, in vivo, po, read-out: ClT
[8] = species: Rattus norvegicus; remark: listed apart in the source
Description: Ability to lower elevated glucose levels in diabetic rats (streptozotocin treated) model at 4.8 mg/kg/day

[9] = system: Rattus norvegicus; assay: Inhibition of sciatic nerve sorbitol accumulation in diabetic rats (streptozotocin treated) done for 30 minutes at 22 degree C in dark by using sorbitol dehydrogenase at 10 mg/kg/day; format: functional; settings: 0.5 h
[10] = Area under the concentration time curve 0-24 hr was determined in fasted rats after p.o. doses of 6 mg/kg/day; format: ADME, organism-based; parameters: time < 24 hr, dose 6 mg/kg/day, route oral; settings: rat, in vivo, po
[11] = Maximum plasma concentration was determined in fasted rats after p.o. doses of 6 mg/kg/day; format: ADME, organism-based; parameters: dose 6 mg/kg/day, route oral; settings: rat, in vivo, po
[12] = Volume of distribution was determined in fasted rats after i.v. doses of 10 mg/kg/day; format: ADME, organism-based; parameters: route intravenous; settings: rat, in vivo, iv
[13] = species: Rattus norvegicus; settings: Plasma; remark: listed apart in the source
Description: Ability to lower elevated plasma triglyceride levels in diabetic rats (streptozotocin treated) model at 0.95 mg/kg/day

[14] = species: Rattus norvegicus; remark: listed apart in the source
Description: Ability to lower elevated glucose levels in diabetic rats (streptozotocin treated) model at 0.95 mg/kg/day

[15] = species: Rattus norvegicus; settings: Plasma; remark: listed apart in the source
Description: Ability to lower elevated plasma triglyceride levels in diabetic rats (streptozotocin treated) model at 1.9 mg/kg/day

[16] = Half-life was determined in nonfasted rats after p.o. doses of 6 mg/kg/day; format: ADME, organism-based; parameters: route oral; settings: rat, in vivo, po
[17] = Maximum plasma concentration was determined in nonfasted rats after p.o. doses of 6 mg/kg/day; format: ADME, organism-based; parameters: dose 6 mg/kg/day, route oral; settings: rat, in vivo, po
[18] = Total body clearance was determined in fasted rats after i.v. doses of 10 mg/kg/day; format: ADME, organism-based; parameters: route intravenous; settings: rat, in vivo, iv, read-out: ClT
[19] = system: Rattus norvegicus; assay: Myo-inositol accumulation in 3 month diabetic rats (streptozotocin treated) done for 30 minutes at 22 degree C in dark by using sorbitol dehydrogenase at 5 mg/kg/day; format: functional
[20] = system: Rattus norvegicus; assay: Improvement in sorbitol accumulation in 3 month diabetic rats (streptozotocin treated) done for 30 minutes at 22 degree C in dark by using sorbitol dehydrogenase at 5 mg/kg/day; format: functional
[21] = system: Rattus norvegicus; assay: Improvement in myo-inositol accumulation in 3 month diabetic rats (streptozotocin treated) done for 30 minutes at 22 degree C in dark by using sorbitol dehydrogenase at 5 mg/kg/day; format: functional
[22] = species: Rattus norvegicus; remark: listed apart in the source
Description: Ability to lower elevated glucose levels in diabetic rats (streptozotocin treated) model at 1.9 mg/kg/day

[23] = Maximum plasma concentration was determined in fasted rats after i.v. doses of 10 mg/kg/day; format: ADME, organism-based; parameters: dose 10 mg/kg/day, route intravenous; settings: rat, in vivo, iv
[24] = species: Rattus norvegicus; settings: Plasma; remark: listed apart in the source
Description: Ability to lower elevated plasma triglyceride levels in diabetic rats (streptozotocin treated) model at 4.8 mg/kg/day

[25] = Time require to reach maximum plasma concentration was determined in fasted rats after p.o. doses of 6 mg/kg/day; format: ADME, organism-based; parameters: route oral; settings: rat, po
[26] = system: Rattus norvegicus; assay: Inhibition of sorbitol accumulation in lens of diabetic rats (streptozotocin treated) done for 30 minutes at 22 degree C in dark by using sorbitol dehydrogenase at 10 mg/kg/day; format: functional; settings: Lens of camera-type eye, 0.5 h
[27] = Half-life was determined in fasted rats after i.v. doses of 10 mg/kg/day; format: ADME, organism-based; parameters: route intravenous; settings: rat, in vivo, iv
[28] = Total body clearance was determined in nonfasted rats after p.o. doses of 6 mg/kg/day; format: ADME, organism-based; parameters: route oral; settings: rat, in vivo, po, read-out: ClT
[29] = Time require to reach maximum plasma concentration was determined in nonfasted rats after p.o. doses of 6 mg/kg/day; format: ADME, organism-based; parameters: route oral; settings: rat, po
[30] = species: Rattus norvegicus; settings: Plasma; remark: listed apart in the source
Description: Ability to lower elevated plasma triglyceride levels in diabetic rats (streptozotocin treated) model at 1.4 mg/kg/day

[31] = Half-life was determined in fasted rats after p.o. doses of 6 mg/kg/day; format: ADME, organism-based; parameters: route oral; settings: rat, in vivo, po
[32] = species: Rattus norvegicus; remark: listed apart in the source
Description: Ability to lower elevated glucose levels in diabetic rats (streptozotocin treated) model at 1.4 mg/kg/day

[33] = system: Rattus norvegicus; assay: Fructose accumulation in 3 month diabetic rats (streptozotocin treated) done for 30 minutes at 22 degree C in dark by using sorbitol dehydrogenase at 5 mg/kg/day; format: functional
[34] = Time require to reach maximum plasma concentration was determined in fasted rats after i.v. doses of 10 mg/kg/day; format: ADME, organism-based; parameters: route intravenous; settings: rat, iv
[35] = system: Rattus norvegicus; assay: Improvement in fructose accumulation in 3 month diabetic rats (streptozotocin treated) done for 30 minutes at 22 degree C in dark by using sorbitol dehydrogenase at 5 mg/kg/day; format: functional
[36] = species: Rattus norvegicus; remark: listed apart in the source
Description: Ability to lower elevated glucose levels in diabetic rats (streptozotocin treated) model at 0.48 mg/kg/day

With `O=C(O)Cn1cc(Cc2nc3cc(C(F)(F)F)ccc3s2)c2ccc(Br)cc21` the IC50 [1] was 3.4 µM.

`O=C(O)Cn1cc(Cc2nc3cc(F)c(F)cc3s2)c2ccccc21` showed an IC50 [1] of 13 µM and an IC50 [2] of 0.56 µM.

Compound `O=C(O)Cn1cc(Cc2nc3ccc(Cl)cc3s2)c2ccccc21` has an IC50 [1] of 2.1 µM.

For `COc1ccc2c(c1)c(Cc1nc3c(F)c(F)cc(F)c3s1)cn2CC(=O)O`, the IC50 [2] was 0.008 µM.

`O=C(O)Cn1cc(Cc2nc3c(F)c(F)cc(F)c3s2)c2cc(Br)ccc21` gave an IC50 [1] of 4.7 µM.

Compound `Cc1ccc2c(c1)c(Cc1nc3cc(C(F)(F)F)ccc3s1)cn2CC(=O)O` has an IC50 [1] of 10.2 µM and an IC50 [2] of 0.1 µM.

`O=C(O)Cn1cc(Cc2nc3c(F)cc(F)cc3s2)c2ccccc21` gave an IC50 [1] of 5.1 µM and an IC50 [2] of 0.69 µM.

For `O=C(O)Cn1cc(Cc2nc3c(F)c(F)cc(F)c3s2)c2ccc(N3CCOCC3)cc21`, the IC50 [1] was 44 µM.

In the case of `Cc1ccc2c(Cc3nc4c(F)c(F)cc(F)c4s3)cn(CC(=O)O)c2c1`, the IC50 [2] is reported as 0.01 µM.

With `O=C(O)Cn1cc(CCc2nc3c(F)c(F)cc(F)c3s2)c2ccccc21` the IC50 [1] was 11 µM and the IC50 [2] was 0.008 µM.

In the case of `CC(C(=O)O)n1cc(Cc2nc3c(F)c(F)cc(F)c3s2)c2ccccc21` (stereo not drawn), the IC50 [2] is reported as 0.163 µM.

Compound `O=C(O)Cn1cc(C(=O)c2nc3c(F)c(F)cc(F)c3s2)c2ccccc21` has an IC50 [2] of 1.6 µM.

In the case of `O=C(O)Cn1cc(Cc2nc3cc(F)ccc3s2)c2ccccc21`, the IC50 [1] is reported as 6.4 µM.

For `O=C(O)Cn1cc(Cc2nc3ccc(F)cc3s2)c2ccccc21`, the IC50 [2] was 1 µM.

For `O=C(O)Cn1cc(Cc2nc3c(F)c(F)cc(F)c3s2)c2ccc(-c3ccccc3)cc21`, the IC50 [1] was 6.1 µM.

In the case of `O=C(O)Cn1cc(Cc2nc3cccc(F)c3s2)c2ccccc21`, the IC50 [1] is reported as 18 µM and the IC50 [2] is reported as 0.055 µM.

`O=C(O)Cn1cc(Cc2nc3cc(C(F)(F)F)ccc3s2)c2cc(Cl)ccc21` gave an IC50 [1] of 4.9 µM and an IC50 [2] of 0.13 µM.

`O=C(O)Cn1cc(Cc2nc3c(F)cccc3s2)c2ccccc21` gave an IC50 [1] of 11 µM and an IC50 [2] of 0.034 µM.

In the case of `O=C(O)Cn1cc(Cc2nc3c(F)c(F)cc(F)c3s2)c2ccccc21` [LIDORESTAT], the Level [3] is reported as 301 mg/dL, the AUC [4] is reported as 72.8 ug equiv/h/mL and the Accumulation [5] is reported as “Below quantifiable level”. For the same compound, the AUC [6] was 97.1 ug equiv/h/mL, the CL/F [7] was 0.134 L/h/kg and the Level [8] was 417 mg/dL. The inhibition in vivo at 10 mg/kg/day [9] was 100%, the AUC [10] was 43.5 ug equiv/h/mL and the Cmax [11] was 4.18 ug equiv/mL. The Vd [12] was 0.694 L/kg, the Level [13] was 261 mg/dL and the Level [14] was 430 mg/dL. The Level [15] was 218 mg/dL, the half-life [16] was 5.18 h and the Cmax [17] was 6.09 µg equiv/mL. For the same compound, the clearance [18] was 0.102 L/h/kg, the Accumulation [19] was 9.26 nM/mg of dry wt and the Accumulation [20] was 100%. The Accumulation [21] was 79%, the Level [22] was 440 mg/dL and the Cmax [23] was 24 ug equiv/mL. The Level [24] was 189 mg/dL, the Tmax [25] was 3.5 h and the inhibition in vivo at 10 mg/kg/day [26] was 77%. The half-life [27] was 5.04 h, the CL/F [28] was 0.0822 L/h/kg and the Tmax [29] was 5 h. It also gave a Level [30] of 242 mg/dL, a half-life [31] of 5.61 h and a Level [32] of 427 mg/dL. For the same compound, the Accumulation [33] was 1.62 nM/mg of dry wt, the Tmax [34] was 4.8 min and the Accumulation [35] was 100%. For the same compound, the Level [36] was 432 mg/dL.

`COc1ccc2c(C(=S)N(C)CC(=O)O)cccc2c1C(F)(F)F` [TOLRESTAT] gave an inhibition in vivo at 10 mg/kg/day [9] of 27% and an inhibition in vivo at 10 mg/kg/day [26] of 7%.

For `O=C(O)Cn1c(=O)n(Cc2ccc(Br)cc2F)c(=O)c2ccc(Cl)cc21` [ZENARESTAT], the IC50 [1] was 9.9 µM, the inhibition in vivo at 10 mg/kg/day [9] was 64% and the IC50 [2] was 0.008 µM. For the same compound, the inhibition in vivo at 10 mg/kg/day [26] was 2%.

Work on `O=C(O)Cc1nn(Cc2nc3cc(C(F)(F)F)ccc3s2)c(=O)c2ccccc12` [ZOPOLRESTAT] yielded an IC50 [1] of 38.6 µM, an inhibition in vivo at 10 mg/kg/day [9] of 80% and an inhibition in vivo at 10 mg/kg/day [26] of 9%.
